Our source for the IC50 values is US20140073634A1 (Institute For Applied Cancer Science/The University of …, priority 2012, published 2014).

One may read the pIC50 as −log10 of the IC50, conventionally taken in molar units.

This experiment deals with 293T-HRE-GFP-luc cells. Nature of the experiment: Cell-based reporter assay for IC50 determinations (HRE-luciferase, hypoxia). The following applies: 6 hrs hypoxia (1% O2), luminescence. The protocol:
Cell-Based Reporter Assay for IC50 Determinations
293T-HRE-GFP-luc cells were routinely maintained in DMEM media (high glucose version with GlutaMAX and HEPES, Gibco, catalog #10564) supplemented with 10% fetal bovine serum and 2 μg/mL puromycin (Invitrogen, catalog #A11138-03) using a humidified incubator (normoxia conditions consisting of 37° C., 5% CO2 and ambient O2).
In preparation for the reporter assay, cells were harvested and resuspended in DMEM media (high glucose version with GlutaMAX and HEPES) supplemented with 10% fetal bovine serum. Cells were inoculated into 384-well white Culturplates (Perkin Elmer catalog #6007680) at a density of 12,000 cells/well in a volume of […]. The microplates were incubated overnight (approximately 17-19 hours) at 37° C. with 5% CO2 and ambient O2. Stock solutions of the test compounds were prepared in DMSO (Sigma, Catalog #D2650) and serially diluted 1:3 using DMSO. Compounds were additionally diluted (1:50) with culturemedium and 10 µL were added per well to the Culturplate. Following a 30 min. incubation under normoxia conditions, the plates were incubated in hypoxia for 6 hrs. (37° C., 5% CO2 and 1% O2). Steadylite Plus (Perkin Elmer, catalog #6016751) was then added ([…]), the plates were mixed on an orbital shaker at room temperature in the dark for 15 min., and luminescence was measured using an Envision plate reader (Perkin Elmer). IC50 values were calculated using a four-parameter logistic curve fit. Results are shown below in Table 2; ND indicates no data.
On the technique in general: A reporter such as luciferase makes a cellular process visible.

pIC50: −log10 of the molar value. Where a name gives a salt, the structure may show the parent alone.

With `CN1CCN(C(=O)c2cccc(Cn3cc(-c4nc(-c5ccc(OC(F)(F)F)cc5)no4)ccc3=O)c2)CC1` [Example 115, 1-(3-(4-methylpiperazine-1-carbonyl)benzyl)-5-(3-(4-(trifluoromethoxy)phenyl)-1,2,4-oxadiazol-5-yl)pyridin-2(1H)-one], the negative-log IC50 (pIC50) (6 h) was greater than 7.00. On to `COCCOc1cccc(Cn2cc(-c3noc(-c4ccc(C(C)(C)CO)cc4)n3)ccc2=O)c1` [Example 70, 5-(5-(4-(1-Hydroxy-2-methylpropan-2-yl)phenyl)-1,2,4-oxadiazol-3-yl)-1-(3-(2-methoxyethoxy)benzyl)pyridin-2(1H)-one], for which, where the note is “6 h”, the pIC50 was greater than 7.00. Still for that read-out and setting: next, `O=c1ccc(-c2nc(-c3ccc(OC(F)(F)F)cc3)no2)cn1Cc1cccc(OCC(O)CO)c1` (stereo not shown) [Example 55, 1-(3-(2,3-Dihydroxypropoxy)benzyl)-5-(3-(4-(trifluoromethoxy)phenyl)-1,2,4-oxadiazol-5-yl)pyridin-2(1H)-one]: greater than 7.00; `COCCOc1cccc(Cn2cc(-c3noc(-c4ccc(C(F)(F)F)cc4)n3)ccc2=O)c1` [Example 193, 1-{[3-(2-methoxyethoxy)phenyl]methyl}-5-{5-[4-(trifluoromethyl)phenyl]-1,2,4-oxadiazol-3-yl}-1,2-dihydropyridin-2-one]: greater than 7.00; `CN1CCN(c2cccc(Cn3cc(-c4cc(-c5ccc(OC(F)(F)F)cc5)on4)ccc3=O)c2)CC1` [Example 96a, 1-(3-(4-Methylpiperazin-1-yl)benzyl)-5-(5-(4-(trifluoromethoxy)phenyl)isoxazol-3-yl)pyridin-2(1H)-one]: greater than 7.00. Molecule `Cc1ccc(-c2nc(-c3ccc(OC(F)(F)F)cc3)no2)c(=O)n1Cc1cccc(C(N)=O)c1` [Example 22, 3-((6-Methyl-2-oxo-3-(3-(4-(trifluoromethoxy)phenyl)-1,2,4-oxadiazol-5-yl)pyridin-1(2H)-yl)methyl)benzamide] had a negative logarithm of the IC50 (pIC50) (6 h) of 6.00 to 7.00.

Take `COCCOc1cc(Cn2cc(-c3nc(-c4ccc(OC(F)(F)F)cc4)no3)ccc2=O)ccn1` [Example 51, 1-{[2-(2-Methoxyethoxy)pyridin-4-yl]methyl}-5-{3-[4-(trifluoromethoxy)phenyl]-1,2,4-oxadiazol-5-yl}-1,2-dihydropyridin-2-one]: the pIC50 (6 h) is 6.00 to 7.00. On the same count and under the same terms, as for `COC(=O)C(C)(C)c1cccc(Cn2cc(-c3nc(-c4ccc(OC(F)(F)F)cc4)no3)ccc2=O)c1` [Example 162, methyl 2-methyl-2-{3-[(2-oxo-5-{3-[4-(trifluoromethoxy)phenyl]-1,2,4-oxadiazol-5-yl}-1,2-dihydropyridin-1-yl)methyl]phenyl}propanoate], the figure is greater than 7.00. Same read-out and setting: as for `Cc1ccc(-c2nnc(-c3ccc(OC(F)(F)F)cc3)o2)c(=O)n1Cc1ccnc(N2CCN(C)CC2)c1` [Example 21, 6-methyl-1-((2-(4-methylpiperazin-1-yl)pyridin-4-yl)methyl)-3-(5-(4-(trifluoromethoxy)phenyl)-1,3,4-oxadiazol-2-yl)pyridin-2(1H)-one], the figure is 5.00 to 6.00. The molecule `CC(C)Oc1ccc(-c2nc(-c3ccc(=O)n(Cc4cccc(C(C)(C)O)c4)c3)no2)cc1` [Example 76, 1-(3-(2-Hydroxypropan-2-yl)benzyl)-5-(5-(4-isopropoxyphenyl)-1,2,4-oxadiazol-3-yl)pyridin-2(1H)-one] had a negative-log IC50 (pIC50) (6 h) greater than 7.00.

With `CC(C)(O)C(O)c1cccc(Cn2cc(-c3nc(-c4ccc(OC(F)(F)F)cc4)no3)ccc2=O)c1` (stereo not shown) [Example 57, 1-(3-(1,2-Dihydroxy-2-methylpropyl)benzyl)-5-(3-(4-(trifluoromethoxy)phenyl)-1,2,4-oxadiazol-5-yl)pyridin-2(1H)-one], the negative logarithm of the IC50 (pIC50) (6 h) is greater than 7.00. The same measure, in the same setting: as for `O=c1ccc(-c2cc(-c3ccc(OC(F)(F)F)cc3)no2)cn1Cc1cccc(N2CCCS2(=O)=O)c1` [Example 252, 1-(3-(1,1-dioxidoisothiazolidin-2-yl)benzyl)-5-(3-(4-(trifluoromethoxy)phenyl)isoxazol-5-yl)pyridin-2(1H)-one], the figure is greater than 7.00; as for `COc1cccc(Cn2cc(-c3nc(-c4ccc(OC(F)(F)F)cc4)no3)ccc2=O)c1` [Example 121, 1-(3-methoxybenzyl)-5-(3-(4-(trifluoromethoxy)phenyl)-1,2,4-oxadiazol-5-yl)pyridin-2(1H)-one], greater than 7.00; as for `COc1cccc(Cn2c(C)ccc(-c3nc(-c4ccc(OC(F)(F)F)cc4)no3)c2=O)c1` [Example 265, 1-[(3-methoxyphenyl)methyl]-6-methyl-3-{3-[4-(trifluoromethoxy)phenyl]-1,2,4-oxadiazol-5-yl}-1,2-dihydropyridin-2-one], 6.00 to 7.00. On to `O=c1ccc(-c2nc(-c3ccc(OC(F)(F)F)cc3)no2)cn1Cc1cccc(O)c1` [Example 32, 1-[(3-Hydroxyphenyl)methyl]-5-{3-[4-(trifluoromethoxy)phenyl]-1,2,4-oxadiazol-5-yl}-1,2-dihydropyridin-2-one], for which the pIC50 (6 h) is 6.00 to 7.00.

For the setting “6 h”, `CN(C)c1cccc(Cn2cc(-c3nc(-c4ccc(OC(F)(F)F)cc4)no3)ccc2=O)c1` [Example 145, 1-{[3-(dimethylamino)phenyl]methyl}-5-{3-[4-(trifluoromethoxy)phenyl]-1,2,4-oxadiazol-5-yl}-1,2-dihydropyridin-2-one] gave a pIC50 greater than 7.00. Still for that read-out and setting: next, `CN1CCN(C(=O)c2cc(Cn3nc(-c4nc(-c5ccc(OC(F)(F)F)cc5)no4)ccc3=O)ccc2F)CC1` [Example 130, 2-{[4-fluoro-3-(4-methylpiperazine-1-carbonyl)phenyl]methyl}-6-{3-[4-(trifluoromethoxy)phenyl]-1,2,4-oxadiazol-5-yl}-2,3-dihydropyridazin-3-one]: 6.00 to 7.00.

In turn, `O=c1ccc(-c2nc(-c3ccc(OC(F)(F)F)cc3)no2)cn1Cc1cccc(C(O)CO)c1` (single isomer, unassigned) [Example 53a, (1R)- or (1S)-1-(3-(1,2-dihydroxyethyl)benzyl)-5-(3-(4-(trifluoromethoxy)phenyl)-1,2,4-oxadiazol-5-yl)pyridin-2(1H)-one] showed a pIC50 greater than 7.00.

Take `O=c1ccc(-c2nc(-c3ccc(OC(F)(F)F)cc3)no2)nn1Cc1ccnc(N2CCNCC2)c1` [Example 1]: for the setting “6 h”, the negative-log IC50 (pIC50) was greater than 7.00. The same measure, in the same setting: as for `CN1CCN(c2cc(Cn3cc(-c4ncc(-c5ccc(OC(F)(F)F)cc5)o4)ccc3=O)ccn2)CC1` [Example 92, 1-((2-(4-Methylpiperazin-1-yl)pyridin-4-yl)methyl)-5-(5-(4-(trifluoromethoxy)phenyl)oxazol-2-yl)pyridin-2(1H)-one], the figure is 6.00 to 7.00; as for `Cc1ccc(-c2nc(-c3ccc(OC(F)(F)F)cc3)no2)c(=O)n1Cc1ccnc(N2CCOCC2)c1` [Example 18, 4-((6-Methyl-2-oxo-3-(3-(4-(trifluoromethoxy)phenyl)-1,2,4-oxadiazol-5-yl)pyridin-1(2H)-yl)methyl)-2-morpholinopyridin-1-ium trifluoroacetate], greater than 7.00; as for `CCS(=O)(=O)c1cccc(Cn2cc(-c3nc(-c4ccc(OC(F)(F)F)cc4)no3)ccc2=O)c1` [Example 161, 1-{[3-(ethanesulfonyl)phenyl]methyl}-5-{3-[4-(trifluoromethoxy)phenyl]-1,2,4-oxadiazol-5-yl}-1,2-dihydropyridin-2-one], greater than 7.00.
